Source: patent publication US20230074545A1, “TREATMENT OF CANCER WITH CDK12/13 INHIBITORS” (Kinnate Biopharma Inc., priority 2019, published 2023)

Assays:
Assay in all cases: Radiometric kinase panel
Type in all cases: biochemical
[1] = target: T1, PYK2 (Homo sapiens, UniProt Q14289)
T1 construct: either as full-length or enzymatically active fragments; purchased ProQinase GmbH (Reaction Biology)
Procedure, shortened: (§1)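 Activity was measured radiometrically from [gamma-33P]-ATP incorporation into substrate. The kinases were recombinant human GST- or His-tagged proteins, full-length or active fragments, expressed in Sf9 or E. coli. Compound in 10% DMSO was added before the enzyme/substrate mix, which started the reaction.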

[2] = target: T2, MKK4 (Homo sapiens, UniProt P45985)
T2 construct: either as full-length or enzymatically active fragments; purchased ProQinase GmbH (Reaction Biology)
Procedure, shortened: as §1

[3] = target: T3, NEK9 (Homo sapiens, UniProt Q8TD19)
T3 construct: either as full-length or enzymatically active fragments; purchased ProQinase GmbH (Reaction Biology)
Procedure, shortened: as §1

[4] = target: T4, CDK4/CycD2 (Homo sapiens, UniProt P11802)
T4 construct: purchased ProQinase GmbH (Reaction Biology)
Procedure, shortened: as §1

[5] = target: T5, ASK1 (Homo sapiens, UniProt Q99683)
T5 construct: either as full-length or enzymatically active fragments; purchased ProQinase GmbH (Reaction Biology)
Procedure, shortened: as §1

[6] = target: T6, CDK4/CycD3 (Homo sapiens, UniProt P11802)
T6 construct: either as full-length or enzymatically active fragments; purchased ProQinase GmbH (Reaction Biology); host or cells: Sf9 insect cells or E. coli (not specified per kinase)
Procedure, shortened: as §1

[7] = target: T7, RPS6KA1 (Homo sapiens, UniProt Q15418)
T7 construct: purchased ProQinase GmbH (Reaction Biology)
T7 sequence (Q15418 whole entry): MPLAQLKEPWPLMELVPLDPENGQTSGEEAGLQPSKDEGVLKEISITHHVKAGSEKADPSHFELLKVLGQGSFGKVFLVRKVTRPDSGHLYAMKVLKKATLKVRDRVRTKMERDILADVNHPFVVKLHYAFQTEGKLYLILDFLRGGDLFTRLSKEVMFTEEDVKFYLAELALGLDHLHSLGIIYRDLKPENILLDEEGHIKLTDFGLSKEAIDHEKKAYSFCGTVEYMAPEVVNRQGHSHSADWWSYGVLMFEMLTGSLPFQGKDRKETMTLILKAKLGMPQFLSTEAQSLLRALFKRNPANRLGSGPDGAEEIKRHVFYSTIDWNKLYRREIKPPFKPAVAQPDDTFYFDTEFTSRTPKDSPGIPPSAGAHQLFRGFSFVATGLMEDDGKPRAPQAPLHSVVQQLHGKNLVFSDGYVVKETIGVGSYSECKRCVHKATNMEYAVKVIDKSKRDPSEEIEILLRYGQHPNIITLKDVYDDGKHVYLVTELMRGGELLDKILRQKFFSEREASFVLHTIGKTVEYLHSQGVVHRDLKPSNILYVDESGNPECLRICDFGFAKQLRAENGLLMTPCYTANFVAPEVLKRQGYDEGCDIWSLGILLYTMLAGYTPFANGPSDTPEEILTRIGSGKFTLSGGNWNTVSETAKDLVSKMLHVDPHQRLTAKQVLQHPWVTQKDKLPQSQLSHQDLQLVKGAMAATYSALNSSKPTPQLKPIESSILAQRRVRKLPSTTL
Procedure, shortened: as §1

[8] = target: T8, TSK2 (Homo sapiens, UniProt Q96PF2)
T8 construct: purchased ProQinase GmbH (Reaction Biology)
Procedure, shortened: as §1

[9] = target: T9, CDK9/CycK (Homo sapiens, UniProt P50750)
T9 construct: either as full-length or enzymatically active fragments; purchased ProQinase GmbH (Reaction Biology)
T9 sequence (P50750 whole entry, the tested form may be a part): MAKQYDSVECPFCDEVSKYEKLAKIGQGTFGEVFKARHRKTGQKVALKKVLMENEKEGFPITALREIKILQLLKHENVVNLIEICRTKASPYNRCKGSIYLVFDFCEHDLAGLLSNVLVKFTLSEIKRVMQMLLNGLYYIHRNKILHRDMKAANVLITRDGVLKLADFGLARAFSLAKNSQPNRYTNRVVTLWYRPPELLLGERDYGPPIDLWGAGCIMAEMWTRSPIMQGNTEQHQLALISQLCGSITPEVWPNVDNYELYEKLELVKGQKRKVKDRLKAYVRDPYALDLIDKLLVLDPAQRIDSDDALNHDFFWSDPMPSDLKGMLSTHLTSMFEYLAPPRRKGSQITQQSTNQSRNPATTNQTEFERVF
T9 sequence (O75909 whole entry partner, the tested form may be a part): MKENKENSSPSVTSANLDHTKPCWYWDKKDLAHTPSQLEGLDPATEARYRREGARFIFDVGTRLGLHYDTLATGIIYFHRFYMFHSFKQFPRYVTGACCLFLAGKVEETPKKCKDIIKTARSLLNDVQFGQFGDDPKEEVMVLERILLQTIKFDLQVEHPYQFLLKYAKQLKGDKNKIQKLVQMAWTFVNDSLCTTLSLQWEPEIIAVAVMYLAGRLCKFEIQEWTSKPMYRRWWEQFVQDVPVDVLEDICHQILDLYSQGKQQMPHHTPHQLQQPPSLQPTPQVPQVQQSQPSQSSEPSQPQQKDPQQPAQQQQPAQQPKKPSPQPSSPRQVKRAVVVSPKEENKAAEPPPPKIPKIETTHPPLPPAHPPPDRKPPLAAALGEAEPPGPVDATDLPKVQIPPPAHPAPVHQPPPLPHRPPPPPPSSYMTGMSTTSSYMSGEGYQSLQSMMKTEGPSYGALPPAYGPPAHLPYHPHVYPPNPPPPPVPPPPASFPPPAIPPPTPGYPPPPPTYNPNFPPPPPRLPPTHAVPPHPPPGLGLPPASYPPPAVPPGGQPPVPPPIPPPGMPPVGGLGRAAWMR
Procedure, shortened: as §1

[10] = target: T10, PKMYT1 (Homo sapiens, UniProt Q99640)
T10 construct: either as full-length or enzymatically active fragments; purchased ProQinase GmbH (Reaction Biology)
Procedure, shortened: as §1

[11] = target: T11, TIE2 (Homo sapiens, UniProt Q02763)
T11 construct: either as full-length or enzymatically active fragments; purchased ProQinase GmbH (Reaction Biology); host or cells: Sf9 insect cells or E. coli
Procedure, shortened: as §1

[12] = target: T12, RPS6KA2 (Homo sapiens, UniProt Q15349)
T12 construct: either as full-length or enzymatically active fragments; purchased ProQinase GmbH (Reaction Biology); host or cells: Sf9 insect cells or E. coli
Procedure, shortened: as §1

[13] = target: T13, TTBK1 (Homo sapiens, UniProt Q5TCY1)
T13 construct: either as full-length or enzymatically active fragments; purchased ProQinase GmbH (Reaction Biology)
Procedure, shortened: as §1

[14] = target: T14, SIK2 (Homo sapiens, UniProt Q9H0K1)
T14 construct: either as full-length or enzymatically active fragments; purchased ProQinase GmbH (Reaction Biology)
T14 sequence (Q9H0K1 whole entry, the tested form may be a part): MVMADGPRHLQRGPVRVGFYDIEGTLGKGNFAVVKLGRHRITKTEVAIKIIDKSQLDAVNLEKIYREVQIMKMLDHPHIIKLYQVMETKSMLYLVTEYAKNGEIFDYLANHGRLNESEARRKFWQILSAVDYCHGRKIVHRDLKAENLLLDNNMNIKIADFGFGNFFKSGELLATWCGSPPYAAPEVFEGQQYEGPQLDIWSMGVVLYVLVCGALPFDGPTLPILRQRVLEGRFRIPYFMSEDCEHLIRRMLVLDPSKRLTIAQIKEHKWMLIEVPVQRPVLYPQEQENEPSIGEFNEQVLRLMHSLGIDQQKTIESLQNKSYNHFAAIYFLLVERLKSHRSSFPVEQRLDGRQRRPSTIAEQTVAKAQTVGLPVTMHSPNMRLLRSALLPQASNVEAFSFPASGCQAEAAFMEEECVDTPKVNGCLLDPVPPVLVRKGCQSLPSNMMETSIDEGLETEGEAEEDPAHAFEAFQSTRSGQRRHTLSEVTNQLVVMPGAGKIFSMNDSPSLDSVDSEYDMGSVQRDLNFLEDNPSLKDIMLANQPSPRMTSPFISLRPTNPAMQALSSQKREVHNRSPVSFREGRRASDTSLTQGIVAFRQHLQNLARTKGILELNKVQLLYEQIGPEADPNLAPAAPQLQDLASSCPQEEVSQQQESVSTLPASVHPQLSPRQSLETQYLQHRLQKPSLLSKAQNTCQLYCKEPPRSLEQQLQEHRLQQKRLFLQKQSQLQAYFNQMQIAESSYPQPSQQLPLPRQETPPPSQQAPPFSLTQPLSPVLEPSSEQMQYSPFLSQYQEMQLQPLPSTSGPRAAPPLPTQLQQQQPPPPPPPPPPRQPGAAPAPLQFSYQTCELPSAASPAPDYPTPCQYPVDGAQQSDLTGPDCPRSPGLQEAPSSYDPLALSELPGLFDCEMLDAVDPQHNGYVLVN
Procedure, shortened: as §1

[15] = target: T15, MST3 (Homo sapiens, UniProt Q9Y6E0)
T15 construct: either as full-length or enzymatically active fragments; purchased ProQinase GmbH (Reaction Biology)
Procedure, shortened: as §1

[16] = target: T16, MINK1 (Homo sapiens, UniProt Q8N4C8)
T16 construct: either as full-length or enzymatically active fragments; purchased ProQinase GmbH (Reaction Biology)
Procedure, shortened: as §1

[17] = target: T17, PKCbeta1 (Homo sapiens, UniProt P05771)
T17 construct: either as full-length or enzymatically active fragments; purchased ProQinase GmbH (Reaction Biology)
Procedure, shortened: as §1

[18] = target: T18, ABL2 (Homo sapiens, UniProt P42684)
T18 construct: purchased ProQinase GmbH (Reaction Biology)
Procedure, shortened: as §1

[19] = target: T19, HIPK2 (Homo sapiens, UniProt Q9H2X6)
T19 construct: purchased ProQinase GmbH (Reaction Biology)
T19 sequence (Q9H2X6 whole entry): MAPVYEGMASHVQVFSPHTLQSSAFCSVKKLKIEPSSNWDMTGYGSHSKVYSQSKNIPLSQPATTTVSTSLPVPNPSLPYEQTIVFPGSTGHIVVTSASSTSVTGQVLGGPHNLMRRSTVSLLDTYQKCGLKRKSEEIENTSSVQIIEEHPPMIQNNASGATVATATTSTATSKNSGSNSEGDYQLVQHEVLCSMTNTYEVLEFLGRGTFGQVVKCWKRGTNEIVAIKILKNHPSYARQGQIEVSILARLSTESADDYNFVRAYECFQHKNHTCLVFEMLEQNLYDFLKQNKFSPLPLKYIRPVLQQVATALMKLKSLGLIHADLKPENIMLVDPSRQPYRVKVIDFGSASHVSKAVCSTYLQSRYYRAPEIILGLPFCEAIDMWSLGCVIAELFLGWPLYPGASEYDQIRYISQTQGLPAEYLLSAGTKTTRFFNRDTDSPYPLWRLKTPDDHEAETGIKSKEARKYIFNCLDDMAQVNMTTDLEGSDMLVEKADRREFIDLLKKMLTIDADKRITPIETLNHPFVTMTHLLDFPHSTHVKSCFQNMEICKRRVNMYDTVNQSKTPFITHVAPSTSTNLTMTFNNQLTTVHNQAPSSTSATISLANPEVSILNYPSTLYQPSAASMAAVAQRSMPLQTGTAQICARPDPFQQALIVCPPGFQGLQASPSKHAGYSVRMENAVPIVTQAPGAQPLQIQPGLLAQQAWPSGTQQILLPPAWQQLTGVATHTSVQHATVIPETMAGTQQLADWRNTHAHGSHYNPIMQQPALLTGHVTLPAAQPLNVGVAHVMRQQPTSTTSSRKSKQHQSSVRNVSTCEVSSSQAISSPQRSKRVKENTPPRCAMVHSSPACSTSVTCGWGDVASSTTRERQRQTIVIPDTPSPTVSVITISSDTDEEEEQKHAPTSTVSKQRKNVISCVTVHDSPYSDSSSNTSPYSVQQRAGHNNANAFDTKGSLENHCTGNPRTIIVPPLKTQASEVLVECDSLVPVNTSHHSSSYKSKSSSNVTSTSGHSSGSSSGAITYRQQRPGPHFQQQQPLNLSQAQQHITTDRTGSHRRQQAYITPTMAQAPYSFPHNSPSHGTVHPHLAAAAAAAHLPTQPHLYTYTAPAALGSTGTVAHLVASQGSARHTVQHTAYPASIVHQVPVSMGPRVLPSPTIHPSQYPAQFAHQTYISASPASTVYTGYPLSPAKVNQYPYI
Procedure, shortened: as §1

[20] = target: T20, CAMKID (Homo sapiens, UniProt Q8IU85)
T20 construct: purchased ProQinase GmbH (Reaction Biology)
Procedure, shortened: as §1

[21] = target: T21, ACK1 (Homo sapiens, UniProt Q07912)
T21 construct: either as full-length or enzymatically active fragments; purchased ProQinase GmbH (Reaction Biology)
Procedure, shortened: as §1

[22] = target: T22, CDK20/CycH (Homo sapiens, UniProt Q8IZL9)
T22 construct: purchased ProQinase GmbH (Reaction Biology)
Procedure, shortened: as §1

[23] = target: T23, LIMK2 (Homo sapiens, UniProt P53671)
T23 construct: either as full-length or enzymatically active fragments; purchased ProQinase GmbH (Reaction Biology)
Procedure, shortened: as §1

[24] = target: T24, VEGFR3 (Homo sapiens, UniProt P35916)
T24 construct: either as full-length or enzymatically active fragments; purchased ProQinase GmbH (Reaction Biology)
Procedure, shortened: as §1

[25] = target: T25, ROS (Homo sapiens, UniProt P08922)
T25 construct: either as full-length or enzymatically active fragments; purchased ProQinase GmbH (Reaction Biology)
Procedure, shortened: as §1

[26] = target: T26, TLK2 (Homo sapiens, UniProt Q86UE8)
T26 construct: either as full-length or enzymatically active fragments; purchased ProQinase GmbH (Reaction Biology)
T26 sequence (Q86UE8 whole entry, the tested form may be a part): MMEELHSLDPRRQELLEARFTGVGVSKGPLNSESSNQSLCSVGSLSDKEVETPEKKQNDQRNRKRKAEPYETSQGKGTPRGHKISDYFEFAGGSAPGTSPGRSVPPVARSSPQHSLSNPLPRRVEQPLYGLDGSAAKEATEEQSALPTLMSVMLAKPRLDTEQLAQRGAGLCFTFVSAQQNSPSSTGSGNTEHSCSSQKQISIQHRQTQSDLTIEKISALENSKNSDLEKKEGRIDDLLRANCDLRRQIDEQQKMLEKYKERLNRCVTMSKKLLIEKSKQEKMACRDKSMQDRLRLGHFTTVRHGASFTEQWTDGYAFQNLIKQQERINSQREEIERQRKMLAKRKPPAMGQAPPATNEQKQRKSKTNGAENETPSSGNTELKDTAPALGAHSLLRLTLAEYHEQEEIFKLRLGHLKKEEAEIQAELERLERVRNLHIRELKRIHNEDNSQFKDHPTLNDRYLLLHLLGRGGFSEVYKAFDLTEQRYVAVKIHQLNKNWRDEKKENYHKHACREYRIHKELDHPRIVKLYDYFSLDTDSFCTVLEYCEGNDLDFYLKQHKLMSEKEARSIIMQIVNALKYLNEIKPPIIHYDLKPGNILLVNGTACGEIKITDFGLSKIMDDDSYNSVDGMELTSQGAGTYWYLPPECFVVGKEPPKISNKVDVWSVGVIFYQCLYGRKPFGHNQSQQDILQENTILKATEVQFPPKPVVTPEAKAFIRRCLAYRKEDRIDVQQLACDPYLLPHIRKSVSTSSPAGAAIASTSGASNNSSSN
Procedure, shortened: as §1

[27] = target: T27, PAK7 (Homo sapiens, UniProt Q9P286)
T27 construct: either as full-length or enzymatically active fragments; purchased ProQinase GmbH (Reaction Biology); host or cells: Sf9 insect cells or E. coli
Procedure, shortened: as §1

[28] = target: T28, ALK (Homo sapiens, UniProt Q9UM73)
T28 construct: either as full-length or enzymatically active fragments; purchased ProQinase GmbH (Reaction Biology)
Procedure, shortened: as §1

[29] = target: T29, ACVR2B (Homo sapiens, UniProt Q13705)
T29 construct: either as full-length or enzymatically active fragments; purchased ProQinase GmbH (Reaction Biology)
T29 sequence (Q13705 19-512): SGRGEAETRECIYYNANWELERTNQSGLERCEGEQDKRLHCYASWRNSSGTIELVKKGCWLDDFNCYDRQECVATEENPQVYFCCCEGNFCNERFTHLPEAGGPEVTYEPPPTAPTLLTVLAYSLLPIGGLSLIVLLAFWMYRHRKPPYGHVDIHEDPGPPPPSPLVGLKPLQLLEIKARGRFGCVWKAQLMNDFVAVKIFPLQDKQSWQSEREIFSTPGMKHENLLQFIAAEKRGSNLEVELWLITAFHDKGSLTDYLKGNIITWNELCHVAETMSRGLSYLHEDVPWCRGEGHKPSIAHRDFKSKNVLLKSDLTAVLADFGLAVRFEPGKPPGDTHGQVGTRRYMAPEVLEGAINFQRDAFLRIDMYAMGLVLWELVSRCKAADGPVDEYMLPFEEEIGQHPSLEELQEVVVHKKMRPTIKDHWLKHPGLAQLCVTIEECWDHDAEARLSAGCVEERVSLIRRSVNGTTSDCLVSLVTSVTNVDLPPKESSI
Procedure, shortened: as §1

[30] = target: T30, ERK1 (Homo sapiens, UniProt P27361)
T30 construct: either as full-length or enzymatically active fragments; purchased ProQinase GmbH (Reaction Biology)
Procedure, shortened: as §1

[31] = target: T31, CDK6/CycD2 (Homo sapiens, UniProt Q00534)
T31 construct: either as full-length or enzymatically active fragments; purchased ProQinase GmbH (Reaction Biology)
Procedure, shortened: as §1

`C=CC(=O)Nc1ccc(C(=O)N2CC[C@@H](Nc3ncc(C#N)cn3)C2)cc1` [Compound 4, (R)-N-(4-(3-((5-cyanopyrimidin-2-yl)amino)pyrrolidine-1-carbonyl)phenyl)acrylamide] gave an inhibition at 1 µM [1] of 4%, an inhibition at 1 µM [2] of 4% and an inhibition at 1 µM [3] of -5%. It also gave an inhibition at 1 µM [4] of 0%, an inhibition at 1 µM [5] of 7% and an inhibition at 1 µM [6] of 10%. For the same molecule, the inhibition at 1 µM [7] was -1%, the inhibition at 1 µM [8] was -1% and the inhibition at 1 µM [9] was 21%. It also gave an inhibition at 1 µM [10] of 5%, an inhibition at 1 µM [11] of -18% and an inhibition at 1 µM [12] of 12%. For the same molecule, the inhibition at 1 µM [13] was -5%, the inhibition at 1 µM [14] was -4% and the inhibition at 1 µM [15] was 3%. It also gave an inhibition at 1 µM [16] of 16%, an inhibition at 1 µM [17] of 4% and an inhibition at 1 µM [18] of -1%. The inhibition at 1 µM [19] was 0%, the inhibition at 1 µM [20] was 0% and the inhibition at 1 µM [21] was 6%. The inhibition at 1 µM [22] was -2%, the inhibition at 1 µM [23] was -3% and the inhibition at 1 µM [24] was -5%. It also gave an inhibition at 1 µM [25] of 2%, an inhibition at 1 µM [26] of -10% and an inhibition at 1 µM [27] of 12%. It also gave an inhibition at 1 µM [28] of 8%, an inhibition at 1 µM [29] of 6% and an inhibition at 1 µM [30] of -4%. It also gave an inhibition at 1 µM [31] of -14%.
